# Earlier results as cited in patent US12502339B2, “Foam compositions” (The Procter & Gamble Company, priority 2021, dated 2025).
# Conditions: in water
row,SMILES,Water solubility at 20° C. (weight percent)
1,CCCC [Butane],<0.01% weight percent
2,O=C=O [Carbon dioxide],0.8% weight percent
3,COC [Dimethyl ether],7% weight percent
4,[He] [Helium],<0.01 weight percent
5,CC(C)C [Isobutane],<0.01% weight percent
6,[N-]=[N+]=O [Nitrous oxide],0.12 weight percent
